Consider 6 compounds from patent USRE49698E1, “Substituted dihydroquinazolines” (AiCuris Anti-infective Cures GmbH, priority 2003, dated 2023).

The subject of one data set is HCMV. Description: Anti-HCMV (anti-human cytomegalovirus) cytopathogenicity test. Format: cell-based. As to the method: (§1) Anti-HCMV (Anti-Human Cytomegalovirus) Cytopathogenicity Tests
(§2) The test compounds are employed as 50 millimolar (mM) solutions in dimethyl sulphoxide (DMSO). Ganciclovir®, Foscarnet® and Cidofovir® are used as reference compounds. After addition of in each case 2 μl of the 50, 5, 0.5 and 0.05 mM DMSO stock solutions to 98 μl portions of cell culture medium in row 2 A-H for duplicate determinations, 1:2 dilutions are carried out with 50 μl portions of medium up to row 11 of the 96-well plate. The wells in rows 1 and 12 each contain 50 μl of medium. In 150 μl of a suspension of 1×10^4 cells (human prepuce fibroblasts [NHDF]) are pipetted into each of the wells (row 1=cell control) and, in rows 2-12, a mixture of HCMV-infected and uninfected NHDF cells (M.O.I.=0.001-0.002), i.e. 1-2 infected cells per 1000 uninfected cells. Row 12 (without substance) serves as virus control. The final test concentrations are 250-0.0005 μM. The plates are incubated at 37° C./5% CO2 for 6 days, i.e. until all the cells are infected in the virus controls (100% cytopathogenic effect [CPE]). The wells are then fixed and stained by adding a mixture of formalin and Giemsa's dye (30 minutes), washed with double-distilled water and dried in a drying oven at 50° C. The plates are then assessed visually using an overhead microscope (Plaque Multiplier from Technomara).
The following data can be acquired from the test plates:
SI (selectivity index)=CC50 (NHDF)/EC50 (HCMV).

The nature of data set [1]: Cytostatic effect on NHDF cells in the anti-HCMV cytopathogenicity test plates. The following applies: human, human prepuce fibroblasts (NHDF cells), 6 days incubation, visual assessment, concentration at which no visible cytostatic effects are evident vs untreated cell control. Format: cell-based. On the procedure: as §1, §2
The following data can be acquired from the test plates: […]
(In general: Cytopathic effects are the visible damage that an infection or toxin causes in cultured cells.)

[2] abbreviates: Human betaherpesvirus 5, NHDF, 144 h; read-out: HCMV EC50.
Setting [3] is: Human betaherpesvirus 5, NHDF, 144 h, read-out: HCMV EC50.

Where a name gives a salt, the structure may show the parent alone. Read-outs that look alike come from different tables or passages of the source.

Usually EC50 stands for the concentration giving half of the maximal effect. As usually defined, the CC50 is the concentration that lowers cell viability or growth by half. Lower therefore signals greater toxicity to the cells. Regarding `O=C(O)CC1c2cccc(F)c2N=C(N2CCN(c3ccc(F)cc3)CC2)N1c1cccc(C(F)(F)F)c1` (single isomer, unassigned) [Example 2, {8-Fluoro-2-[4-(4-fluorophenyl)-1-piperazinyl]-3-[3-(trifluoromethyl)phenyl]-3,4-dihydro-4-quinazolinyl}acetic acid], in the data set with HCMV (CC50 (NHDF)/EC50 (HCMV)), the “SI HCMV (selectivity index)” value amounted to 750. Besides, the EC50 with HCMV (setting [2]) came to 16 nM. Besides, the CC50 at 6 days in data set [1] was determined as 12000 nM.

For `Cc1cccc(N2CCN(C3=Nc4c(F)cccc4C(CC(=O)O)N3c3cccc(C(F)(F)F)c3)CC2)c1` (single isomer, unassigned) [Example 9, {8-Fluoro-2-[4-(3-methylphenyl)-1-piperazinyl]-3-[3-(trifluoromethyl)phenyl]-3,4-dihydro-4-quinazolinyl}acetic acid hydrochloride], the “SI HCMV (selectivity index)” value in the data set on HCMV (CC50 (NHDF)/EC50 (HCMV)) is 750. In addition, the concentration giving a half-maximal response (EC50) in the data set on HCMV (setting [3]) is 20 nM. Moreover, the midpoint of cytotoxicity in data set [1], the CC50 at 6 days, lay at 15000 nM.

With `COc1cccc(N2CCN(C3=Nc4c(F)cccc4C(CC(=O)O)N3c3cc(C(F)(F)F)ccc3OC)CC2)c1` (single isomer, unassigned) [Example 15, {8-Fluoro-2-[4-(3-methoxyphenyl)-1-piperazinyl]-3-[2-methoxy-5-(trifluoromethyl)phenyl]-3,4-dihydro-4-quinazolinyl}acetic acid], in the data set with HCMV (setting [2]), the EC50 turned out to be 2 nM.

Regarding `COc1ccc(C(F)(F)F)cc1N1C(N2CCN(c3ccc(F)cc3)CC2)=Nc2c(F)cccc2C1CC(=O)O` (single isomer, unassigned) [Example 19, {8-Fluoro-2-[4-(4-fluorophenyl)-1-piperazinyl]-3-[2-methoxy-5-(trifluoromethyl)phenyl]-3,4-dihydro-4-quinazolinyl}acetic acid], the “SI HCMV (selectivity index)” value with HCMV (CC50 (NHDF)/EC50 (HCMV)) turned out to be 8947. For the same compound, in the data set with HCMV (setting [2]), the concentration giving a half-maximal response (EC50) was determined as 2 nM. For the same compound, the 50% cytotoxic concentration (CC50) at 6 days in data set [1] came out at 17000 nM.

For the compound `COc1ccc(Cl)cc1N1C(N2CCN(c3ccc(F)cc3)CC2)=Nc2c(F)cccc2C1CC(=O)O` (single isomer, unassigned) [Example 23, {8-Fluoro-2-[4-(4-fluorophenyl)-1-piperazinyl]-3-[6-methoxy-3-chlorophenyl]-3,4-dihydro-4-quinazolinyl}acetic acid hydrochloride], in the data set on HCMV (CC50 (NHDF)/EC50 (HCMV)), the “SI HCMV (selectivity index)” value is listed as 12632. In addition, in the data set with HCMV (setting [3]), the concentration for a half-maximal effect (EC50) amounted to 2 nM. Half-maximal cytotoxicity in data set [1] (CC50 at 6 days) was put at 24000 nM.

As to `NC(=O)c1ccc2c(c1)C(CC(=O)O)N(c1cccc(C(F)(F)F)c1)C(N1CCN(c3cccc(Cl)c3)CC1)=N2` (stereo not shown) [Example 29], in the data set with HCMV (CC50 (NHDF)/EC50 (HCMV)), the “SI HCMV (selectivity index)” value came to 671. The EC50 with HCMV (setting [2]) is 70 nM. This compound gave a CC50 at 6 days in data set [1] of 47000 nM.
